Measured values published in ChEMBL document CHEMBL5465560, “Selectivity Literature for EUbOPEN Chemogenomic Library” (2024).
Blank lines part the entries; values can stand above or below the molecule they belong to.

What was measured:
[1] = target: Serine/threonine-protein kinase PAK 4 (Homo sapiens, UniProt O96013); test: Selectivity interaction (Ambit KINOMEscan and KiNATiv profiling in Jurkat cells) EUB0000090b PAK4; type: cell-based; settings: at 1 µM
[2] = target: T1, Interleukin-1 receptor-associated kinase 3 (Homo sapiens) (UniProt Q9Y616); test: Selectivity interaction (ActivX KiNativ screen (ex vivo kinase selectivity in human PBMCs)) EUB0001619a IRAK3; type: cell-based; settings: PBMC, at 1 µM
T1 sequence (whole entry): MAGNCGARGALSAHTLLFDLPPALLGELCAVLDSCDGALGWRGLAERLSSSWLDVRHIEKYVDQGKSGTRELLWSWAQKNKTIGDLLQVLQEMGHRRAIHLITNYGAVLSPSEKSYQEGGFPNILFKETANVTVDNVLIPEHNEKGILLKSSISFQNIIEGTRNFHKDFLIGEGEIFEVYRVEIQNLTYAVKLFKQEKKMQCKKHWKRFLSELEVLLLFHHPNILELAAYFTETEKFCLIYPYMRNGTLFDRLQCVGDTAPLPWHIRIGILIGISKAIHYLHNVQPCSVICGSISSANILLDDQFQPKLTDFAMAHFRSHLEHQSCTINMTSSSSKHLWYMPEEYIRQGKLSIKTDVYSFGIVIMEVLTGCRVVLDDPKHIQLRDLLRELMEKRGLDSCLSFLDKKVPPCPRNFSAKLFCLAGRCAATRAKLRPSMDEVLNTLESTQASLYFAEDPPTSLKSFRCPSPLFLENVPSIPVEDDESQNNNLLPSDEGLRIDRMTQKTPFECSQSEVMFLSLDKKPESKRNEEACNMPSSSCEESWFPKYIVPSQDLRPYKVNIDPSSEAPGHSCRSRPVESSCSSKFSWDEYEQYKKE

[3] = target: T2, Rhodopsin kinase GRK7 (Homo sapiens) (UniProt Q8WTQ7); test: Selectivity interaction (KinomeScan (DiscoverX)) EUB0000045b GRK7
T2 sequence (whole entry): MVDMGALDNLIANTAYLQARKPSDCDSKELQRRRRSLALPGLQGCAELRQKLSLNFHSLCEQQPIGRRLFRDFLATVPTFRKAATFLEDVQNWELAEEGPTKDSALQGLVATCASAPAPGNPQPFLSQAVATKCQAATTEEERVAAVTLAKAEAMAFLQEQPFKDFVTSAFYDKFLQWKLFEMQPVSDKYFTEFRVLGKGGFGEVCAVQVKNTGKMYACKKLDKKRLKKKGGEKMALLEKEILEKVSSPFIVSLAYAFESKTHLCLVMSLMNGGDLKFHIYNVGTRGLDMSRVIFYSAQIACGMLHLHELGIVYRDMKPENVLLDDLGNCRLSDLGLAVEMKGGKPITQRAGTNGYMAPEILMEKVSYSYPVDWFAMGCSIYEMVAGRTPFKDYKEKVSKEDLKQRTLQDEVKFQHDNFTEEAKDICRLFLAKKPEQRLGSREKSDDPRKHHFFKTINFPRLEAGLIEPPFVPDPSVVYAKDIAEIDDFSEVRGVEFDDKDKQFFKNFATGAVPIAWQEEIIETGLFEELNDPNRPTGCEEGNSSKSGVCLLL

[4] = target: Tyrosine-protein kinase BTK (Homo sapiens, UniProt Q06187); test: Selectivity interaction (Upstate Kinase Profiler service (Millipore)) EUB0000056c BTK; settings: at 1 µM
[5] = target: Ribosomal protein S6 kinase alpha-6 (Homo sapiens, UniProt Q9UK32); test: Selectivity interaction (Kinase panel (Invitrogen)) EUB0000639a RPS6KA6; settings: at 200 nM
[6] = target: T3, Serine/threonine-protein kinase TNNI3K (Homo sapiens) (UniProt Q59H18); test: Selectivity interaction (KinomeScan (DiscoverX)) EUB0001049a TNNI3K; settings: at 1 µM
T3 sequence (whole entry): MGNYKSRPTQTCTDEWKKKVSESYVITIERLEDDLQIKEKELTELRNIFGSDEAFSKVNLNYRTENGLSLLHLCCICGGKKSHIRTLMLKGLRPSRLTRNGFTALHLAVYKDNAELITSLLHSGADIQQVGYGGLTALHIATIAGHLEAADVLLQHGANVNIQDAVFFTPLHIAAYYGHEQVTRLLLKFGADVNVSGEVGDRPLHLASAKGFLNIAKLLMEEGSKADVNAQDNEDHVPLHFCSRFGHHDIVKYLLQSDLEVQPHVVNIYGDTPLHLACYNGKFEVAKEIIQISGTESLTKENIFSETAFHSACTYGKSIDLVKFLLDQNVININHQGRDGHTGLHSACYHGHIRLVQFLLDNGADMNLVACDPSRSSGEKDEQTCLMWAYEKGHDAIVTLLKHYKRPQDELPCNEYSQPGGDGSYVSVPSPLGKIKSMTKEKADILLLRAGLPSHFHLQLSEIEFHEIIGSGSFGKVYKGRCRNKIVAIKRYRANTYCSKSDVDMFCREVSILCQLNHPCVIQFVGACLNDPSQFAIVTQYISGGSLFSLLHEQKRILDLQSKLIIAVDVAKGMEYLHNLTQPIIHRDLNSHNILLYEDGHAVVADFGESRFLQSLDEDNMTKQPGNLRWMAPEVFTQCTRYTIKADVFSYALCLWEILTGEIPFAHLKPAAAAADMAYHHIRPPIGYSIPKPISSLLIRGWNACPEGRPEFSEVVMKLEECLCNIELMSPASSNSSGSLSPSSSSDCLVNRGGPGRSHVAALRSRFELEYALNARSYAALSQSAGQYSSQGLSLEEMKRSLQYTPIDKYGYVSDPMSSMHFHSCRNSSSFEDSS

[7] = test system: ALK tyrosine kinase receptor (Homo sapiens), Q9UM73 [F1174L]; test: (§1) Selectivity interaction (LanthaScreen Eu Kinase Binding Assay) EUB0001632a ALK; settings: at 10 µM
[8] = test system: ALK tyrosine kinase receptor (Homo sapiens), Q9UM73 [C1156Y]; test: as §1; settings: at 10 µM
ALK tyrosine kinase receptor (Homo sapiens), Q9UM73 [C1156Y], sequence (Q9UM73 whole entry C1156Y, looked up): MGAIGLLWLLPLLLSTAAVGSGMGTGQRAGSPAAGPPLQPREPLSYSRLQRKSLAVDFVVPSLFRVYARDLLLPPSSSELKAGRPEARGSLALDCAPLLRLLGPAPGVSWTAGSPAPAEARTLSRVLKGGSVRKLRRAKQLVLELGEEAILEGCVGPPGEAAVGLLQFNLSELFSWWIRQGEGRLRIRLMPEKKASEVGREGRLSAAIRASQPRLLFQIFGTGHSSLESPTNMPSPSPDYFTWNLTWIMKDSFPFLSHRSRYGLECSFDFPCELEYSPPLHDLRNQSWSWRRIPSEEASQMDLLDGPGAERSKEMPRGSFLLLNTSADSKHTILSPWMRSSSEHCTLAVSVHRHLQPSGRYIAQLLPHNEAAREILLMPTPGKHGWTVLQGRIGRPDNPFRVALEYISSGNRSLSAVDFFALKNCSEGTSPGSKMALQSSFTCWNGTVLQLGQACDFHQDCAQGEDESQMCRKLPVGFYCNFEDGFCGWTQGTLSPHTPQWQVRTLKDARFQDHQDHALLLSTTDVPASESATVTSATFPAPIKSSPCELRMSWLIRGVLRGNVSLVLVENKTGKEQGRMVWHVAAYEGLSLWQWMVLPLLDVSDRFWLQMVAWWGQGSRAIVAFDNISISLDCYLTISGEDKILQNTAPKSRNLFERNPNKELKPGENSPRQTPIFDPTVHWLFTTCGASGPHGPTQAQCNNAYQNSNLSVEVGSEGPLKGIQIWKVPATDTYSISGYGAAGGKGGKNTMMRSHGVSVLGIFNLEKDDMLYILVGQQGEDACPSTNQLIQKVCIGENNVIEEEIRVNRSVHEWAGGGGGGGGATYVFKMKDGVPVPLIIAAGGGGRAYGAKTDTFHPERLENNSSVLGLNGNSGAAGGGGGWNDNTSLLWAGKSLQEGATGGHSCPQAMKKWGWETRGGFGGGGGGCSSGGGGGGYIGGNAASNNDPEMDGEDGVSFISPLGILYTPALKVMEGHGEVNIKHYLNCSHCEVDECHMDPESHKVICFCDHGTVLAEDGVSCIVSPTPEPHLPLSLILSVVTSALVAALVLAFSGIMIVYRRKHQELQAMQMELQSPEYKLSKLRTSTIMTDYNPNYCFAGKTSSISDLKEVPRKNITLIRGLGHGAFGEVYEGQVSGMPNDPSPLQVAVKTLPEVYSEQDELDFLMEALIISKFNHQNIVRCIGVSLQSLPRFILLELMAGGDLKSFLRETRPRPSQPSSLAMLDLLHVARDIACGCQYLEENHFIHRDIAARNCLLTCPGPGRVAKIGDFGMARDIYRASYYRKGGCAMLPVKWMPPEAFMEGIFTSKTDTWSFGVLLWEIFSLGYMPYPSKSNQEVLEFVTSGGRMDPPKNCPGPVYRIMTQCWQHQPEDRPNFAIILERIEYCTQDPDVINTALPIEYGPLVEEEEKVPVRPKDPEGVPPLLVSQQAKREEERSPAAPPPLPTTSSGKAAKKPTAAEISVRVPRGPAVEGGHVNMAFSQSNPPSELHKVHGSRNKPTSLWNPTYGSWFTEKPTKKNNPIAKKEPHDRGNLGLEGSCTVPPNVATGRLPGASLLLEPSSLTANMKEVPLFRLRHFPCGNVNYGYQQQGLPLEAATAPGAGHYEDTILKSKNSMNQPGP

Tyrosine-protein kinase BTK, sequence (Q06187 whole entry): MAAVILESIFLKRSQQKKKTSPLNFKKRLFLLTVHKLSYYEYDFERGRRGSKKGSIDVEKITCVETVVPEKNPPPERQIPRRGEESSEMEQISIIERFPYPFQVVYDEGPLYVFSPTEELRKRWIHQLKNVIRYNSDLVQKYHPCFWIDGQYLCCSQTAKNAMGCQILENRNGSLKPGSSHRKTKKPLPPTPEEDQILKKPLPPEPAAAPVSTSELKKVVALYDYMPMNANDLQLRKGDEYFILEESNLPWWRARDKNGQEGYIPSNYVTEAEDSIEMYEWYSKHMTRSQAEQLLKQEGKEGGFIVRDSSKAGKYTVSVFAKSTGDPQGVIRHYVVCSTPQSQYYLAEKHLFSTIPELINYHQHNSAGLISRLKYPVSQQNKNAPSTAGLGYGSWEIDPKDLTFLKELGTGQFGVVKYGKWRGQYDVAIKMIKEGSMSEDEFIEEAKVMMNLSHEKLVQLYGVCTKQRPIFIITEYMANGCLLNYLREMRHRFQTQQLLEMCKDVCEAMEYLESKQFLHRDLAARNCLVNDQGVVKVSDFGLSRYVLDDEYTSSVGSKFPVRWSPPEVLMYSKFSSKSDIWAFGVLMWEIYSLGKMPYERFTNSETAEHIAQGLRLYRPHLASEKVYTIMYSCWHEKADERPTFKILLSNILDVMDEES
ALK tyrosine kinase receptor (Homo sapiens), Q9UM73 [F1174L], sequence (Q9UM73 whole entry F1174L): as the sequence (Q9UM73 whole entry C1156Y, looked up) above, with Y1156C, F1174L counted along it
Serine/threonine-protein kinase PAK 4, sequence (O96013 whole entry, looked up): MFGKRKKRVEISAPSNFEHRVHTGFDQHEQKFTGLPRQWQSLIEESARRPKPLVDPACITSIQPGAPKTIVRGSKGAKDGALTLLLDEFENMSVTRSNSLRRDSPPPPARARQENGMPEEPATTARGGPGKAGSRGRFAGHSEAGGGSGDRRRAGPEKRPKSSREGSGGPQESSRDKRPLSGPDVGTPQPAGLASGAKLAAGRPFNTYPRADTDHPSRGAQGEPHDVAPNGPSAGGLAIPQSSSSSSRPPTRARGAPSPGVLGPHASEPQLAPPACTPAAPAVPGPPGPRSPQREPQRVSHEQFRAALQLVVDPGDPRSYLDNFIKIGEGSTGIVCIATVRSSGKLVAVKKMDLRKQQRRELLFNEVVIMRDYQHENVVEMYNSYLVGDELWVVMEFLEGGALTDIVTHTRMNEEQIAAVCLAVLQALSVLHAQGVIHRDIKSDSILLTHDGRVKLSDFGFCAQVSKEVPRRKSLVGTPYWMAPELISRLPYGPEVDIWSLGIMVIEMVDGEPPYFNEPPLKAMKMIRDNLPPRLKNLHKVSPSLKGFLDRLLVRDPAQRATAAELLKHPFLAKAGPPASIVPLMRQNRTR
Ribosomal protein S6 kinase alpha-6, sequence (Q9UK32 whole entry): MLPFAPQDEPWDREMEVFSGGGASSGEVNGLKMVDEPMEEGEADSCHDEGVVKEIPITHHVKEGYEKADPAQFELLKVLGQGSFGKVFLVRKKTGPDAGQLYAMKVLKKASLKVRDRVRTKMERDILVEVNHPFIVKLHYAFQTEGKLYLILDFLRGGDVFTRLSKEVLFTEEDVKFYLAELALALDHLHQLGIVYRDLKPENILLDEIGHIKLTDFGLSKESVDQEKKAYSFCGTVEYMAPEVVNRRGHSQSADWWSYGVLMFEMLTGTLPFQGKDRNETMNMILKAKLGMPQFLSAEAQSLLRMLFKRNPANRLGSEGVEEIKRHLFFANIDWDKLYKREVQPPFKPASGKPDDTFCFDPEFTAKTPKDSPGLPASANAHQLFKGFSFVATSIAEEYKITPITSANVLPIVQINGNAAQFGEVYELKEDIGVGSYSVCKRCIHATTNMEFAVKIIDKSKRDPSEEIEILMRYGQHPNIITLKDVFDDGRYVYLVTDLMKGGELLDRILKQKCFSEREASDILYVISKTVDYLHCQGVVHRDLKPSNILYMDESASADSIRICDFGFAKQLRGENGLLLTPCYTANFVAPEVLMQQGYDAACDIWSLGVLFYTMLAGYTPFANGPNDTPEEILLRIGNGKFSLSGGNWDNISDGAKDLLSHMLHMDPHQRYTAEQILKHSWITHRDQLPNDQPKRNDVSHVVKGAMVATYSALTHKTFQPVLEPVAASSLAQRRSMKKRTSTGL

Structure (SMILES): CN(C)C/C=C/C(=O)Nc1ccc(C(=O)N2CCCC(Nc3ncc(Cl)c(-c4c[nH]c5ccccc45)n3)C2)cc1 (centres undefined)
% of control [1]: 78%

Structure (SMILES): N#Cc1cccc(-c2c[nH]c3ncnc(N4CCOCC4)c23)c1
% of inhibition [2]: 34%

Structure (SMILES): C=CC(=O)Nc1cc(-n2c(=O)ccc3cnc4ccc(-c5ccc(NS(C)(=O)=O)cc5)cc4c32)ccc1C
% of control ([3]; at 1 µM): 75%
% of control ([3]; at 10 µM): 84%

% of inhibition [4]: 6%
Structure (SMILES): Cc1ccc(-c2ccc3c(ccc4sc5c(c43)NC[C@@H](C)NC5=O)n2)cn1

% of inhibition [5]: -1.29%
Structure (SMILES): CC[C@@H]1[C@H](F)C(=O)N[C@@H]1COc1nccc2cc(C(N)=O)c(OC)cc12 [ZIMLOVISERTIB]

Structure (SMILES): COc1cc(Nc2nc(C)cc(-c3cnn4nc(OC)ccc34)n2)cc(C(F)(F)F)c1
% of control [6]: 100%

% of inhibition [7]: -19.4%
% of inhibition [8]: -8.74%
Structure (SMILES): Cn1cc(-n2cnc3c(NCc4nc5cc(Cl)c(Cl)cc5[nH]4)nc(N4CCOCC4)nc32)cn1
